Test results published in patent publication US10787425B2, “Thiazolidinedione derivative and use thereof” (INDUSTRY-ACADEMIC COOPERATION FOUNDATION CHOSUN UNIVERSITY, priority 2016, dated 2020).

Columns and labels:
A549 cells = assay: Measurement of PGE2 concentration in A549 cell medium (ELISA); format: cell-based, human; settings: for Increment %: PGE2 concentration versus PBS control, 5 μM, 12 hours; for PGE2 concentration: inhibitor 5 μM, medium collected after 12 hours, ELISA
Method: A549 cells were subcultured in RPMI 1640 medium (containing+8% fetal bovine serum (FBS) and antibiotic-antimycotic (AA)) for one week, and then, inoculated in a 6-well plate at 2.5×10^5 cells/mL (5×10^5 cells/well) and cultured for 24 hours in a 5% CO2 incubator at a temperature of 37° C. A549 cells are adenocarcinomic human alveolar basal epithelial cells which are derived from lung tissues. When cells were grown to about 80% confluence, a 15-PGDH inhibitor in 1×PBS buffer was injected at a concentration of 5 μM. To compare the results, the same amount of 1×PBS buffer was injected into a negative control, and, the treated cells were cultured in 5% CO2 incubator. After 12 hours, the medium was collected and the collected medium was assayed to measure PGE2 concentration by using an ELISA Kit (Abcam) according to the manufacturer's instructions. The concentration may be expressed as an exact value by plotting the calibration curve by using the absorbance value after diluting the standard in the medium by concentration.

15-PGDH = 15-PGDH (Homo sapiens (Human), UniProt P15428); assay: 15-PGDH inhibitory activity (NADH at 340 nm); format: biochemical; settings: concentration inhibiting 50% of 15-PGDH activity; purified 15-PGDH, 21 μM PGE2, 0.25 mM NAD+
Method: The 15-PGDH cDNA plasmid containing the BamHI of the pGEX-2T expression vector and EcoRI restriction enzyme sites was transfected into E. coli BL-21 LysS by using conventional methods used in the art. Then, the transfected cells were cultured in an LB medium (500 ml) containing 50 μg/ml of ampicillin at a temperature of 37° C. and at a rate of 220 rpm until the OD600 reached 0.6. Then, isopropyl beta-D-thiogalactoxide (1 mM) was added and the cells were further cultured at the temperature of 25° C. for 12 hours. The cells were then centrifuged at the gravity of 4,000 g for 30 minutes at a temperature of 4° C. to collect a cell pellet. The cell pellet was dissolved in 20 ml of cell lysis buffer (containing 1×PBS buffer (pH 7.4): 1 mM EDTA and 0.1 mM DTT) and sonicated at a temperature of 4° C. for 14×10 s. The digested cells were centrifuged at the gravity of 4,000 g for 20 minutes at a temperature of 4° C. The supernatant was then slowly loaded onto a glutathione-sepharose 4B column equilibrated at a temperature of 4° C. with cell lysis buffer [containing 1×PBS buffer (pH 7.4), 1 mM EDTA, and 0.1 mM DTT]. Washing was performed thereon by using a dissolution buffer until the OD280 reached 0.005 or less. Then, 15-PGDH was eluted from the glutathione-sepharose 4B column at room temperature for 5 minutes by using an elution buffer [containing 50 mM Tris-HCl (pH 8.0), 10 mM reduced glutathione, 1 mM EDTA, and 0.1 mM DTT). The concentration of the purified enzyme was measured, and the purification level thereof was confirmed by SDS-PAGE.
That is, the cells were treated with a solution including 50 mM Tris-HCl (pH 7.5), 0.1 mM DTT, 0.25 mM (NAD+), 10 μg of purified 15-PGDH enzyme, 21 μM PGE2. and various concentrations (0.0001 μM to 64 μM) of the derivative compound according to the present disclosure. In this case, the total volume of the solution was 2 ml. Then, the absorbance of the reaction mixture was recorded at the wavelength of 340 nm. To measure the activity of the derivative compounds according to the present disclosure, which is an inhibitor of 15-PGDH, the average value of NADH absorbance at 340 nm at various concentrations was obtained from a standard curve.

Sequence of 15-PGDH (P15428 whole entry): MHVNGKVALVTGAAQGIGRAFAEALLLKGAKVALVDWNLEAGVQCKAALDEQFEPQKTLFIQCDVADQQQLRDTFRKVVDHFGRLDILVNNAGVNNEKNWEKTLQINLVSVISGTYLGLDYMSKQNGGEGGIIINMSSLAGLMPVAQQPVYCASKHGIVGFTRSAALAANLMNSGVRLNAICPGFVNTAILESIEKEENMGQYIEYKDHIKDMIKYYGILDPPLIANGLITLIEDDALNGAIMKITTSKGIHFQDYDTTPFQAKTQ

| SMILES | Increment % (A549 cells) [%] | PGE2 concentration (A549 cells) [pg/mL] | IC50 (15-PGDH) [µM] |
| --- | --- | --- | --- |
| O=C1NC(=O)/C(=C/c2cccc(OC(=O)C3CC3)c2Cl)S1 [Compound 76, (Z)-2-chloro-3-((2,4-dioxothiazolidin-5-ylidene)methyl)phenyl cyclopropanecarboxylate] | 3.34 | 123.6726 | 0.542 |
| COc1cc(/C=C2\SC(=O)NC2=O)ccc1OC(=O)C1CCCCC1 [Compound 36, (Z)-4-((2,4-dioxothiazolidin-5-ylidene)methyl)-2-methoxyphenyl cyclohexanecarboxylate] | 101.32 | 408.196 | 0.242 |
| O=C1NC(=O)/C(=C/c2ccc(OC(=O)C3CCCCC3)c(Cl)c2)S1 [Compound 6, (Z)-2-chloro-4-((2,4-dioxothiazolidin-5-ylidene)methyl)phenyl cyclohexanecarboxylate] | 27.71 | 349.6304 | 0.137 |
| COc1cc(/C=C2\SC(=O)NC2=O)ccc1OC(=O)CCc1ccccc1 [Compound 43, (Z)-4-((2,4-dioxothiazolidin-5-ylidene)methyl)-2-methoxyphenyl 3-phenylpropanoate] | 113.27 | 432.4258 | 0.0286 |
| CCOc1cc(/C=C2\SC(=O)NC2=O)ccc1OC(=O)C1CCCCC1 [Compound 51, (Z)-4-((2,4-dioxothiazolidin-5-ylidene)methyl)-2-ethoxyphenyl cyclohexanecarboxylate] | 3.34 | 283.1296 | 0.549 |
| O=C(CCCCc1ccccc1)Oc1ccc(/C=C2\SC(=O)NC2=O)cc1 [Compound 75, (Z)-4-((2,4-dioxothiazolidin-5-ylidene)methyl)phenyl 5-phenylpentanoate] | 23.31 | 159.2841 | 0.0921 |
| O=C1NC(=O)/C(=C/c2ccc(OC(=O)C3CCCC3)c(Cl)c2)S1 [Compound 3, (Z)-2-chloro-4-((2,4-dioxothiazolidin-5-ylidene)methyl)phenyl cyclopentanecarboxylate] | −30.1 | 191.3645 | 0.196 |
| CCOc1cc(/C=C2\SC(=O)NC2=O)ccc1OC(=O)CC1CCCCC1 [Compound 52, (Z)-4-((2,4-dioxothiazolidin-5-ylidene)methyl)-2-ethoxyphenyl 2-cyclohexylacetate] | −18.49 | 223.32 | 0.0328 |
| COc1cc(/C=C2\SC(=O)NC2=O)ccc1OC(=O)CCC1CCCC1 [Compound 35, (Z)-4-((2,4-dioxothiazolidin-5-ylidene)methyl)-2-methoxyphenyl 3-cyclopentylpropanoate] | 130.79 | 455.1278 | 0.0234 |
| COc1cc(/C=C2\SC(=O)NC2=O)ccc1OC(=O)CCCC1CCCCC1 [Compound 39, (Z)-4-((2,4-dioxothiazolidin-5-ylidene)methyl)-2-methoxyphenyl 4-cyclohexylbutanoate] | 220.24 | 649.318 | 0.0175 |
| CCOc1cc(/C=C2\SC(=O)NC2=O)ccc1OC(=O)CCC1CCCC1 [Compound 50, (Z)-4-((2,4-dioxothiazolidin-5-ylidene)methyl)-2-ethoxyphenyl 3-cyclopentylpropanoate] | 89.67 | 519.6554 | 0.029 |
| O=C1NC(=O)/C(=C/c2ccc(OC(=O)C3CCCCC3)c(Br)c2)S1 [Compound 21, (Z)-2-bromo-4-((2,4-dioxothiazolidin-5-ylidene)methyl)phenyl cyclohexanecarboxylate] | 62.47 | 411.1081 | 0.0376 |
| O=C(Cc1ccccc1)Oc1ccc(/C=C2\SC(=O)NC2=O)cc1 [Compound 72, (Z)-4-((2,4-dioxothiazolidin-5-ylidene)methyl)phenyl 2-phenylacetate] | −18.07 | 105.832 | 0.108 |
| O=C(CCc1ccccc1)Oc1ccc(/C=C2\SC(=O)NC2=O)cc1Br [Compound 28, (Z)-2-bromo-4-((2,4-dioxothiazolidin-5-ylidene)methyl)phenyl 3-phenylpropanoate] | 190.32 | 572.5235 | 0.0284 |
| COc1cc(/C=C2\SC(=O)NC2=O)ccc1OC(=O)CC1CCCCC1 [Compound 37, (Z)-4-((2,4-dioxothiazolidin-5-ylidene)methyl)-2-methoxyphenyl 2-cyclohexylacetate] | 88.85 | 382.9119 | 0.0278 |
| COc1cc(/C=C2\SC(=O)NC2=O)ccc1OC(=O)C1CCCC1 [Compound 33, (Z)-4-((2,4-dioxothiazolidin-5-ylidene)methyl)-2-methoxyphenyl cyclopentanecarboxylate] | −2.32 | 192.6292 | 0.494 |
| O=C1NC(=O)/C(=C/c2ccc(OC(=O)C3CCC3)c(Br)c2)S1 [Compound 17, (Z)-2-bromo-4-((2,4-dioxothiazolidin-5-ylidene)methyl)phenyl cyclobutanecarboxylate] | 56.34 | 395.597 | 0.106 |
| O=C(CCCC1CCCCC1)Oc1ccc(/C=C2\SC(=O)NC2=O)cc1 [Compound 69, (Z)-4-((2,4-dioxothiazolidin-5-ylidene)methyl)phenyl 4-cyclohexylbutanoate] | 134.45 | 302.8477 | 0.0261 |
| COc1cc(/C=C2\SC(=O)NC2=O)ccc1OC(=O)Cc1ccccc1 [Compound 42, (Z)-4-((2,4-dioxothiazolidin-5-ylidene)methyl)-2-methoxyphenyl 2-phenylacetate] | 97.64 | 400.7345 | 0.0422 |
| O=C1NC(=O)/C(=C/c2ccc(OC(=O)C3CCC3)c(Cl)c2)S1 [Compound 2, (Z)-2-chloro-4-((2,4-dioxothiazolidin-5-ylidene)methyl)phenyl cyclobutanecarboxylate] | 9.96 | 301.0364 | 0.782 |
| O=C(Cc1ccccc1)Oc1ccc(/C=C2\SC(=O)NC2=O)c(Cl)c1 [Compound 102, (Z)-3-chloro-4-((2,4-dioxothiazolidin-5-ylidene)methyl)phenyl 2-phenylacetate] | 99.2022 | 222.4242 | 0.0753 |
| O=C(CC1CCCCC1)Oc1cccc(/C=C2\SC(=O)NC2=O)c1Cl [Compound 82, (Z)-2-chloro-3-((2,4-dioxothiazolidin-5-ylidene)methyl)phenyl 2-cyclohexylacetate] | 189.97 | 610.1325 | 0.0327 |
| COc1cc(/C=C2\SC(=O)NC2=O)ccc1OC(=O)c1ccccc1.O=C(O)c1ccccc1 [Compound 41, (Z)-4-((2,4-dioxothiazolidin-5-ylidene)methyl)-2-methoxyphenyl benzoate] | −88.34 | 23.64 | 0.151 |
| O=C(CCC1CCCC1)Oc1ccc(/C=C2\SC(=O)NC2=O)cc1 [Compound 65, (Z)-4-((2,4-dioxothiazolidin-5-ylidene)methyl)phenyl 3-cyclopentylpropanoate] | 78.97 | 284.8007 | 0.0232 |
| O=C(CC1CCCCC1)Oc1ccc(/C=C2\SC(=O)NC2=O)cc1 [Compound 67, (Z)-4-((2,4-dioxothiazolidin-5-ylidene)methyl)phenyl 2-cyclohexylacetate] | 8.34 | 139.9468 | 0.0305 |
